Test results from ChEMBL document CHEMBL1153480, “Study on the potential anti-cancer activity of phosphonium and ammonium-based ionic liquids” (2009).

Tests used:
Type in all cases: functional
SNB-75 [1] = test: cells; details: Homo sapiens
Description: Growth inhibition of human SNB75 cells assessed as drug level required for 50% reduction in net protein increase by SRB assay relative to control

Malme-3M = test: cells; details: Homo sapiens
Description: Growth inhibition of human MALME-3M cells assessed as drug level required for 50% reduction in net protein increase by SRB assay relative to control

M14 = test: cells; details: Homo sapiens
Description: Growth inhibition of human M14 cells assessed as drug level required for 50% reduction in net protein increase by SRB assay relative to control

SK-MEL-28 [2] = test: cells; details: Homo sapiens
Description: Growth inhibition of human SK-MEL-28 cells assessed as drug level required for 50% reduction in net protein increase by SRB assay relative to control

UACC-257 = test: cells; details: Homo sapiens
Description: Growth inhibition of human UACC257 cells assessed as drug level required for 50% reduction in net protein increase by SRB assay relative to control

IGROV-1 = test: cells; details: Homo sapiens
Description: Growth inhibition of human IGROV1 cells assessed as drug level required for 50% reduction in net protein increase by SRB assay relative to control

OVCAR-3 = test: cells; details: Homo sapiens
Description: Growth inhibition of human OVCAR-3 cells assessed as drug level required for 50% reduction in net protein increase by SRB assay relative to control

OVCAR-4 [3] = test: cells; details: Homo sapiens
Description: Growth inhibition of human OVCAR4 cells assessed as drug level required for 50% reduction in net protein increase by SRB assay relative to control

SK-OV-3 [4] = test: cells; details: Homo sapiens
Description: Growth inhibition of human SKOV3 cells assessed as drug level required for 50% reduction in net protein increase by SRB assay relative to control

786-0 [5] = test: cells; details: Homo sapiens
Description: Growth inhibition of human 786-0 cells assessed as drug level required for 50% reduction in net protein increase by SRB assay relative to control

RXF 393 [6] = test: cells; details: Homo sapiens
Description: Growth inhibition of human RFX393 cells assessed as drug level required for 50% reduction in net protein increase by SRB assay relative to control

SN12C [7] = test: cells; details: Homo sapiens
Description: Growth inhibition of human SN12C cells assessed as drug level required for 50% reduction in net protein increase by SRB assay relative to control

UO-31 [8] = test: cells; details: Homo sapiens
Description: Growth inhibition of human UO31 cells assessed as drug level required for 50% reduction in net protein increase by SRB assay relative to control

PC-3 [9] = test: cells; details: Homo sapiens
Description: Growth inhibition of human PC3 cells assessed as drug level required for 50% reduction in net protein increase by SRB assay relative to control

DU-145 = test: cells; details: Homo sapiens
Description: Growth inhibition of human DU145 cells assessed as drug level required for 50% reduction in net protein increase by SRB assay relative to control

MCF7 = test: cells; details: Homo sapiens
Description: Growth inhibition of human MCF7 cells assessed as drug level required for 50% reduction in net protein increase by SRB assay relative to control

BT-549 [10] = test: cells; details: Homo sapiens
Description: Growth inhibition of human BT549 cells assessed as drug level required for 50% reduction in net protein increase by SRB assay relative to control

T47D [11] = test: cells; details: Homo sapiens
Description: Growth inhibition of human T47D cells assessed as drug level required for 50% reduction in net protein increase by SRB assay relative to control

MDA-MB-468 = test: cells; details: Homo sapiens
Description: Growth inhibition of human MDA-MB-468 cells assessed as drug level required for 50% reduction in net protein increase by SRB assay relative to control

MOLT-4 = test: Cytotoxicity against human MOLT4 cells by SRB assay; details: read-out: LC50 (the source's name)
SR = test: Cytotoxicity against human SR cells by SRB assay; details: read-out: LC50 (the source's name)
NCI-H460 [12] = test: Cytotoxicity against human NCI-H460 cells by SRB assay; details: read-out: LC50 (the source's name)
HCC 2998 [13] = test: Cytotoxicity against human HCC2998 cells by SRB assay; details: read-out: LC50 (the source's name)
HCT-116 = test: Cytotoxicity against human HCT116 cells by SRB assay; details: read-out: LC50 (the source's name)
HT-29 [14] = test: Cytotoxicity against human HT-29 cells by SRB assay; details: read-out: LC50 (the source's name)
KM12 [15] = test: Cytotoxicity against human KM12 cells by SRB assay; details: read-out: LC50 (the source's name)
SW-620 = test: Cytotoxicity against human SW620 cells by SRB assay; details: read-out: LC50 (the source's name)
SNB-19 [16] = test: Cytotoxicity against human SNB19 cells by SRB assay; details: read-out: LC50 (the source's name)
SNB-75 [17] = test: Cytotoxicity against human SNB75 cells by SRB assay; details: read-out: LC50 (the source's name)
SK-MEL-2 = test: Cytotoxicity against human SK-MEL-2 cells by SRB assay; details: read-out: LC50 (the source's name)
SK-MEL-28 [18] = test: Cytotoxicity against human SK-MEL-28 cells by SRB assay; details: read-out: LC50 (the source's name)
cells = details: Homo sapiens, Hs-578T
Description: Growth inhibition of human Hs 578T cells assessed as drug level required for 50% reduction in net protein increase by SRB assay relative to control

ACHN = test: cells; details: Homo sapiens
Description: Growth inhibition of human ACHN cells assessed as cell growth at 10 uM by SRB assay

RXF 393 [19] = test: cells; details: Homo sapiens; remark: listed apart in the source
Description: Growth inhibition of human RFX393 cells assessed as cell growth at 10 uM by SRB assay

SN12C [20] = test: cells; details: Homo sapiens; remark: listed apart in the source
Description: Growth inhibition of human SN12C cells assessed as cell growth at 10 uM by SRB assay

UO-31 [21] = test: cells; details: Homo sapiens; remark: listed apart in the source
Description: Growth inhibition of human UO31 cells assessed as cell growth at 10 uM by SRB assay

PC-3 [22] = test: cells; details: Homo sapiens; remark: listed apart in the source
Description: Growth inhibition of human PC3 cells assessed as cell growth at 10 uM by SRB assay

MDA-MB-231 = test: cells; details: Homo sapiens
Description: Growth inhibition of human MDA-MB-231 cells assessed as cell growth at 10 uM by SRB assay

MDA-MB-435 [23] = test: cells; details: Homo sapiens
Description: Growth inhibition of human MDA-MB-435 cells assessed as cell growth at 10 uM by SRB assay

HT-29 [24] = test: cells; details: Homo sapiens
Description: Growth inhibition of human HT-29 cells assessed as drug level required for 50% reduction in net protein increase by SRB assay relative to control

NCI-H460 [25] = test: cells; details: Homo sapiens
Description: Growth inhibition of human NCI-H460 cells assessed as drug level required for 50% reduction in net protein increase by SRB assay relative to control

UO-31 [26] = test: Cytotoxicity against human UO31 cells by SRB assay; details: read-out: LC50 (the source's name)
MDA-MB-435 [27] = test: Cytotoxicity against human MDA-MB-435 cells by SRB assay; details: read-out: LC50 (the source's name)
BT-549 [28] = test: Cytotoxicity against human BT549 cells by SRB assay; details: read-out: LC50 (the source's name)
CCRF-CEM = test: cells; details: Homo sapiens
Description: Growth inhibition of human CCRF-CEM cells assessed as cell growth at 10 uM by SRB assay

K562 = test: cells; details: Homo sapiens
Description: Growth inhibition of human K562 cells assessed as cell growth at 10 uM by SRB assay

RPMI-8226 = test: cells; details: Homo sapiens
Description: Growth inhibition of human RPMI8226 cells assessed as cell growth at 10 uM by SRB assay

A549 = test: cells; details: Homo sapiens
Description: Growth inhibition of human A549 cells assessed as cell growth at 10 uM by SRB assay

HOP-62 = test: cells; details: Homo sapiens
Description: Growth inhibition of human HOP62 cells assessed as cell growth at 10 uM by SRB assay

NCI-H322M = test: cells; details: Homo sapiens
Description: Growth inhibition of human NCI-H322M cells assessed as cell growth at 10 uM by SRB assay

COLO 205 = test: cells; details: Homo sapiens
Description: Growth inhibition of human COLO205 cells assessed as cell growth at 10 uM by SRB assay

HCC 2998 [29] = test: cells; details: Homo sapiens
Description: Growth inhibition of human HCC2998 cells assessed as cell growth at 10 uM by SRB assay

HCT-15 = test: cells; details: Homo sapiens
Description: Growth inhibition of human HCT15 cells assessed as cell growth at 10 uM by SRB assay

KM12 [30] = test: cells; details: Homo sapiens
Description: Growth inhibition of human KM12 cells assessed as cell growth at 10 uM by SRB assay

NCI-H23 = test: cells; details: Homo sapiens
Description: Growth inhibition of human NCI-H23 cells assessed as drug level required for 50% reduction in net protein increase by SRB assay relative to control

NCI-H226 = test: cells; details: Homo sapiens
Description: Growth inhibition of human NCI-H226 cells assessed as drug level required for 50% reduction in net protein increase by SRB assay relative to control

HOP-92 = test: cells; details: Homo sapiens
Description: Growth inhibition of human HOP92 cells assessed as drug level required for 50% reduction in net protein increase by SRB assay relative to control

EKVX = test: cells; details: Homo sapiens
Description: Growth inhibition of human EKVX cells assessed as drug level required for 50% reduction in net protein increase by SRB assay relative to control

HL-60(TB) = test: cells; details: Homo sapiens
Description: Growth inhibition of human HL-60(TB) cells assessed as drug level required for 50% reduction in net protein increase by SRB assay relative to control

SF-268 = test: cells; details: Homo sapiens
Description: Growth inhibition of human SF268 cells assessed as drug level required for 50% reduction in net protein increase by SRB assay relative to control

SF-295 = test: cells; details: Homo sapiens
Description: Growth inhibition of human SF295 cells assessed as drug level required for 50% reduction in net protein increase by SRB assay relative to control

T47D [31] = test: cells; details: Homo sapiens; remark: listed apart in the source
Description: Growth inhibition of human T47D cells assessed as cell growth at 10 uM by SRB assay

SF-539 = test: cells; details: Homo sapiens
Description: Growth inhibition of human SF539 cells assessed as cell growth at 10 uM by SRB assay

SNB-19 [32] = test: cells; details: Homo sapiens
Description: Growth inhibition of human SNB19 cells assessed as cell growth at 10 uM by SRB assay

SNB-75 [33] = test: cells; details: Homo sapiens; remark: listed apart in the source
Description: Growth inhibition of human SNB75 cells assessed as cell growth at 10 uM by SRB assay

U-251 = test: cells; details: Homo sapiens
Description: Growth inhibition of human U251 cells assessed as cell growth at 10 uM by SRB assay

LOX IMVI = test: cells; details: Homo sapiens
Description: Growth inhibition of human LOXIMVI cells assessed as cell growth at 10 uM by SRB assay

SK-MEL-5 = test: cells; details: Homo sapiens
Description: Growth inhibition of human SK-MEL-5 cells assessed as cell growth at 10 uM by SRB assay

OVCAR-4 [34] = test: cells; details: Homo sapiens; remark: listed apart in the source
Description: Growth inhibition of human OVCAR4 cells assessed as cell growth at 10 uM by SRB assay

OVCAR-5 = test: cells; details: Homo sapiens
Description: Growth inhibition of human OVCAR5 cells assessed as cell growth at 10 uM by SRB assay

SK-OV-3 [35] = test: cells; details: Homo sapiens; remark: listed apart in the source
Description: Growth inhibition of human SKOV3 cells assessed as cell growth at 10 uM by SRB assay

786-0 [36] = test: cells; details: Homo sapiens; remark: listed apart in the source
Description: Growth inhibition of human 786-0 cells assessed as cell growth at 10 uM by SRB assay

SMILES: CCCCCCCCCCCCCCCCCCPCCCCCCCCCCCCCC (centres undefined) [MONO(OCTADECYL(TETRADECYL)PHOSPHONIUM) MONO(HEXAFLUOROPHOSPHATE(V)) MONO(TETRAFLUOROBORATE)]
- GI50 (SNB-75 [1]): 0.223 µM
- GI50 (Malme-3M): 0.034 µM
- GI50 (M14): 0.087 µM
- GI50 (SK-MEL-28 [2]): 0.376 µM
- GI50 (UACC-257): 0.272 µM
- GI50 (IGROV-1): 0.316 µM
- GI50 (OVCAR-3): 0.118 µM
- GI50 (OVCAR-4 [3]): 0.125 µM
- GI50 (SK-OV-3 [4]): 0.331 µM
- GI50 (786-0 [5]): 0.211 µM
- GI50 (RXF 393 [6]): 0.352 µM
- GI50 (SN12C [7]): 0.062 µM
- GI50 (UO-31 [8]): 0.398 µM
- GI50 (PC-3 [9]): 0.044 µM
- GI50 (DU-145): 0.357 µM
- GI50 (MCF7): 0.253 µM
- GI50 (BT-549 [10]): 0.094 µM
- GI50 (T47D [11]): 0.089 µM
- GI50 (MDA-MB-468): 0.053 µM
- CC50 (MOLT-4): > 100 µM
- CC50 (SR): > 100 µM
- CC50 (NCI-H460 [12]): > 100 µM
- CC50 (HCC 2998 [13]): > 100 µM
- CC50 (HCT-116): > 100 µM
- CC50 (HT-29 [14]): > 100 µM
- CC50 (KM12 [15]): > 100 µM
- CC50 (SW-620): > 100 µM
- CC50 (SNB-19 [16]): > 100 µM
- CC50 (SNB-75 [17]): > 100 µM
- CC50 (SK-MEL-2): > 100 µM
- CC50 (SK-MEL-28 [18]): > 100 µM
- GI50 (cells): 0.084 µM
- growth at 10 µM (ACHN): -58.9%
- growth at 10 µM (RXF 393 [19]): -16.9%
- growth at 10 µM (SN12C [20]): -70.6%
- growth at 10 µM (UO-31 [21]): -44.8%
- growth at 10 µM (PC-3 [22]): -32.7%
- growth at 10 µM (MDA-MB-231): -74.5%
- growth at 10 µM (MDA-MB-435 [23]): -59.3%
- GI50 (HT-29 [24]): 0.061 µM
- GI50 (NCI-H460 [25]): 0.346 µM
- CC50 (UO-31 [26]): > 100 µM
- CC50 (MDA-MB-435 [27]): > 100 µM
- CC50 (BT-549 [28]): > 100 µM
- growth at 10 µM (CCRF-CEM): 23.3%
- growth at 10 µM (K562): 16.6%
- growth at 10 µM (RPMI-8226): 27.2%
- growth at 10 µM (A549): 2.21%
- growth at 10 µM (HOP-62): -65.6%
- growth at 10 µM (NCI-H322M): -79.2%
- growth at 10 µM (COLO 205): -6.75%
- growth at 10 µM (HCC 2998 [29]): -76.4%
- growth at 10 µM (HCT-15): -35.8%
- growth at 10 µM (KM12 [30]): -52.2%
- GI50 (NCI-H23): 0.236 µM
- GI50 (NCI-H226): 0.189 µM
- GI50 (HOP-92): 0.038 µM
- GI50 (EKVX): 0.206 µM
- GI50 (HL-60(TB)): 0.039 µM
- GI50 (SF-268): 0.088 µM
- GI50 (SF-295): 0.251 µM
- growth at 10 µM (T47D [31]): -38.5%
- growth at 10 µM (SF-539): -83.2%
- growth at 10 µM (SNB-19 [32]): -44.9%
- growth at 10 µM (SNB-75 [33]): -85.2%
- growth at 10 µM (U-251): -6.5%
- growth at 10 µM (LOX IMVI): 0.43%
- growth at 10 µM (SK-MEL-5): -69.2%
- growth at 10 µM (OVCAR-4 [34]): -71.3%
- growth at 10 µM (OVCAR-5): -70%
- growth at 10 µM (SK-OV-3 [35]): -68.7%
- growth at 10 µM (786-0 [36]): -74%

SMILES: CCCCCCCCCCCCCCCCCCPCCCCCCCCCCCCCC.O=S(=O)(NS(=O)(=O)C(F)(F)F)C(F)(F)F (centres undefined)
- GI50 (SNB-75 [1]): 0.076 µM
- GI50 (Malme-3M): 0.029 µM
- GI50 (M14): 0.052 µM
- GI50 (SK-MEL-28 [2]): 0.207 µM
- GI50 (UACC-257): 0.103 µM
- GI50 (IGROV-1): 0.071 µM
- GI50 (OVCAR-3): 0.051 µM
- GI50 (OVCAR-4 [3]): 0.073 µM
- GI50 (SK-OV-3 [4]): 2.61 µM
- GI50 (786-0 [5]): 0.253 µM
- GI50 (RXF 393 [6]): 0.141 µM
- GI50 (SN12C [7]): 0.042 µM
- GI50 (UO-31 [8]): 0.35 µM
- GI50 (PC-3 [9]): 0.045 µM
- GI50 (DU-145): 0.156 µM
- GI50 (MCF7): 0.144 µM
- GI50 (BT-549 [10]): 0.066 µM
- GI50 (T47D [11]): 0.073 µM
- GI50 (MDA-MB-468): 0.036 µM
- CC50 (MOLT-4): > 100 µM
- CC50 (SR): 8.09 µM
- CC50 (NCI-H460 [12]): > 100 µM
- CC50 (HCC 2998 [13]): > 100 µM
- CC50 (HCT-116): > 100 µM
- CC50 (HT-29 [14]): > 100 µM
- CC50 (KM12 [15]): > 100 µM
- CC50 (SW-620): > 100 µM
- CC50 (SNB-19 [16]): > 100 µM
- CC50 (SNB-75 [17]): > 100 µM
- CC50 (SK-MEL-2): > 100 µM
- CC50 (SK-MEL-28 [18]): 6.59 µM
- GI50 (cells): 0.053 µM
- growth at 10 µM (ACHN): -26%
- growth at 10 µM (RXF 393 [19]): -97.7%
- growth at 10 µM (SN12C [20]): -79.1%
- growth at 10 µM (UO-31 [21]): -36.6%
- growth at 10 µM (PC-3 [22]): -78.1%
- growth at 10 µM (MDA-MB-231): -38.3%
- growth at 10 µM (MDA-MB-435 [23]): -81%
- GI50 (HT-29 [24]): 0.053 µM
- GI50 (NCI-H460 [25]): 0.315 µM
- CC50 (UO-31 [26]): > 100 µM
- CC50 (MDA-MB-435 [27]): 19.8 µM
- CC50 (BT-549 [28]): > 100 µM
- growth at 10 µM (CCRF-CEM): 26.4%
- growth at 10 µM (K562): 39%
- growth at 10 µM (RPMI-8226): 59.4%
- growth at 10 µM (A549): -35%
- growth at 10 µM (HOP-62): -2.18%
- growth at 10 µM (NCI-H322M): -11.9%
- growth at 10 µM (COLO 205): -65.4%
- growth at 10 µM (HCC 2998 [29]): -24.4%
- growth at 10 µM (HCT-15): 7.54%
- growth at 10 µM (KM12 [30]): -100%
- GI50 (NCI-H23): 0.192 µM
- GI50 (NCI-H226): 0.105 µM
- GI50 (HOP-92): 0.03 µM
- GI50 (EKVX): 0.123 µM
- GI50 (HL-60(TB)): 0.046 µM
- GI50 (SF-268): 0.072 µM
- GI50 (SF-295): 0.205 µM
- growth at 10 µM (T47D [31]): -14.8%
- growth at 10 µM (SF-539): 5.67%
- growth at 10 µM (SNB-19 [32]): 8.99%
- growth at 10 µM (SNB-75 [33]): -31.4%
- growth at 10 µM (U-251): -68.4%
- growth at 10 µM (LOX IMVI): -68.5%
- growth at 10 µM (SK-MEL-5): -100%
- growth at 10 µM (OVCAR-4 [34]): -91.8%
- growth at 10 µM (OVCAR-5): -7.29%
- growth at 10 µM (SK-OV-3 [35]): -3.34%
- growth at 10 µM (786-0 [36]): -65.8%
